Data from patent US8465983B1, “Detection and delivery systems utilizing supported lipid bilayers” (priority 2005, dated 2013).

Experiments:
[1] = system: EPC lipid bilayer on porous silica beads; experiment: Suspension study: disruption of EPC bilayers on fluorescein-containing porous silica beads, release of dye into supernatant; assay type: biochemical
Procedure: Lipid coatings on beads were disrupted using 10% TRITON X-100 detergent. Each sample in micro-centrifuge tubes contained 5 mg of lipid bilayer coated, fluorescein entrapped beads in 200 μL of Tris buffer. Samples were centrifuged and 100 μL aliquots of supernatant were mixed with either 100 μL of Tris buffer or 100 μL of 10% TRITON X-100 detergent in separate centrifuge tubes. The fluorescence intensity of each mixture was immediately (time=0) recorded. Each mixture was mixed with its respective bead sample in centrifuge tube and incubated at 25° C. in the dark. After 30 min, samples were centrifuged and fluorescent intensity of the supernatants was measured. Beads were resuspended in their respective supernatants. Fluorescence intensity was again measured at 90 and 150 min.
Experimental procedures were similar to the TRITON X-100 detergent based analysis. For experiments with α-toxin, three different toxin concentrations: 15, 45 and 250 μg/mL were used at 37° C. and 25° C. Beads coated with EPC were used. In the experiments with melittin, 220 μM melittin was used with beads coated with either 100% EPC, 10:90 (molar ratio) mixture of DMPG and EPC or an 80:20 mixture of DMPG and DMPC. All melittin experiments were conducted at 25° C.
Previous suspension studies on disruption of lipid bilayers have been performed with small unilamellar vesicles where disruption of the lipid bilayer membranes was detected by monitoring the unquenching of a highly concentrated, encapsulated dye. In the present work disruption was monitored via release of fluorescein dye from porous beads, by measuring the increase in fluorescence intensity of the supernatant at 520 nm. Beads were first suspended in Tris buffer containing the disruptor. After selected time periods, beads were sedimented by centrifuging and a portion of the supernatant was taken for the measurement. The measured portion was added back to the bead sample to permit continuous monitoring. The scattering effect that was present in vesicle based studies was minimized by measuring only the supernatant after centrifugation of the beads.

[2] = system: DMPG lipid bilayer supported on MS-PPE; experiment: Superquenching flow cytometric assay for disruption of DMPG lipid bilayer supported on MS-PPE; assay type: biochemical
Procedure: Lipid bilayers were disrupted by adding TRITON X-100 detergent to the bead suspension to a final concentration of 0.25% (w/v).
Bead suspensions of 2.5×10^5 DMPG-coated MS-PPE in 200 μL of PBS were analyzed using a FACScan flow cytometer (Becton-Dickinson, Sunnyvale, Calif.) with excitation at 488 nm. Fluorescence signals were acquired on FL-1 channel (525 nm) using log amplification and analyzed with the CellQuest software. Kinetic analysis of disruption of supported lipid bilayer by melittin was performed by acquiring real-time data with continuous mixing of samples (10^6 MS-PPE in 800 μl of PBS) using a magnetic stirrer. The raw data were analyzed using IDL Query software developed by Bruce Edwards (Cancer Center, University of New Mexico, Albuquerque, N. Mex.).
Because an anionic lipid was used to form a lipid bilayer around MS-PPE, it was expected that MLT will disrupt the DMPG lipid bilayer by such a detergent-like action. This was tested by adding 10 μM AQS to DMPG-coated MS-PPE followed by treatment with one of the following: TRITON X-100 detergent, synthetic MLT (sMLT), or natural MLT (nMLT) and immediately reading the fluorescence by flow cytometry. […] These histograms resemble the ones reported previously for MS-PPE, without a lipid coating, in absence and in presence of AQS.
From FIG. 18, the association constant (corresponding to the reciprocal of the point of half saturation) for nMLT and sMLT with DMPG were 5×10^6 M^−1 and 1.7×10^6 M^−1, respectively. […] Lower concentrations of nMLT, in comparison to sMLT, were required to disrupt the DMPG lipid bilayer. This might be attributed to the fact that nMLT contains some phospholipase A2 (PLA2) as a contaminant. PLA2 has a high affinity for anionic phospholipids, with an association constant of 0.5×10^10 M^−1 (Kim et al., Anal. Chem. 250, 109-116 (1997)), which is about 3000 fold higher than that of MLT. Although PLA2 activity requires calcium, which is not present in the experimental system, it has been reported that even upon addition of EDTA to natural MLT, PLA2 maintains its activity, probably due to formation of a tight complex with calcium with PLA2 (Dempsey, C. E. Biochim. Biophys. Acta 1990, 1031, 143-161).
The kinetics of disruption of supported lipid bilayer by MLT were monitored by measuring real-time changes in fluorescence intensity by flow cytometry (FIG. 19). Suspensions of 10^6 DMPG-coated MS-PPE in 800 μL of PBS were treated with AQS at a final concentration of 10 μM, then with either sMLT, TRITON X-100 detergent, or no treatment. […] Treatment with sMLT in the absence of AQS led to an increase in normalized fluorescence (FIG. 19, trace A). This can be attributed to disruption of the lipid bilayer by sMLT, and is consistent with a reversal of the slight quenching of fluorescence caused by the formation of a DMPG lipid bilayer over MS-PPE. Addition of AQS alone to DMPG-coated MS-PPE (FIG. 19, trace C) led to a 20% reduction in fluorescence as reported earlier. Addition of TRITON X-100 detergent to DMPG-coated MS-PPE after the addition of AQS (first dip in trace E, FIG. 19) caused immediate decrease in fluorescence to ˜10% of its original value (second dip in trace E, FIG. 19). In contrast, addition of sMLT, after the addition of AQS, (FIG. 19, trace D) led to a gradual reduction of fluorescence intensity to ˜20% of the original value. Although MLT forms dimers at high concentrations (Dempsey, C. E. Biochim. Biophys. Acta 1990, 1031, 143-161), it is monomeric at the concentrations used in this study. On the other hand, TRITON X-100 detergent forms micelles at the concentration used in this study.

Substance: TRITON X-100
- increase in fluorescence intensity of the supernatant ([1]; 10% TRITON X-100, first 30 min, 25° C.): more than 70 fold
- increase in fluorescence intensity (total disruption of bilayers) ([1]; TRITON X-100 added after 150 min exposure to α-toxin): 50 fold
- fluorescence after disruption of the lipid bilayer, % of the original fluorescence value ([2]; 0.25% (w/v) TRITON X-100, 10 μM AQS, Example 2): ~10%
- fluorescence after disruption, % of the fluorescence of DMPG-coated MS-PPE in the absence of quencher ([2]; 0.25% (w/v) TRITON X-100, 10 μM AQS, Example 3): ~18%
- fluorescence intensity after addition, % of original value (real-time kinetics) ([2]; 10^6 DMPG-coated MS-PPE in 800 μL PBS, after 10 μM AQS): ~10%
